Experimental data: PubChem BioAssay (NCI)
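Results reflect a 48-hour exposure of cells in 96-well plates to compound at five concentrations. The concentration for 50% growth inhibition is given as GI50. The concentration for full growth arrest is given as TGI.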

Columns and labels:
Experiment in all cases: NCI anticancer screen, dose series, 48 h
CCRF-CEM leukemia = system: CCRF-CEM leukemia
COLO 205 colon = system: COLO 205 colon
HS 578T breast = system: HS 578T breast
MDA-MB-231 breast = system: MDA-MB-231 breast
NCI-H460 lung = system: NCI-H460 lung
PC-3 prostate = system: PC-3 prostate
RPMI-8226 leukemia = system: RPMI-8226 leukemia
SF-268 CNS = system: SF-268 CNS
T-47D breast = system: T-47D breast
TK-10 renal = system: TK-10 renal

| Compound | GI50 (CCRF-CEM leukemia) | TGI (CCRF-CEM leukemia) | GI50 (COLO 205 colon) | TGI (COLO 205 colon) | GI50 (HS 578T breast) | TGI (HS 578T breast) | GI50 (MDA-MB-231 breast) | TGI (MDA-MB-231 breast) | GI50 (NCI-H460 lung) | GI50 (PC-3 prostate) | TGI (PC-3 prostate) | GI50 (RPMI-8226 leukemia) | TGI (RPMI-8226 leukemia) | GI50 (SF-268 CNS) | TGI (SF-268 CNS) | GI50 (T-47D breast) | TGI (T-47D breast) | GI50 (TK-10 renal) | TGI (TK-10 renal) | TGI (NCI-H460 lung) |
| --- | --- | --- | --- | --- | --- | --- | --- | --- | --- | --- | --- | --- | --- | --- | --- | --- | --- | --- | --- | --- |
| O=C(Nc1cccc(-n2cc(-c3ccncc3)c(-c3ccc(O)c(Cl)c3)n2)c1)Nc1cccc(C(F)(F)F)c1 | 2.12 µM | 7.92 µM | 1.96 µM | 3.73 µM | 1.51 µM | 7.08 µM | 2.24 µM | 16.9 µM | 2.64 µM | 2.47 µM | 8.96 µM | 1.77 µM | 5.13 µM | 2.59 µM | 9.98 µM | 1.97 µM | 7.3 µM | 3.29 µM | 9.3 µM |  |
| OCC(O)C(O)C(O)/C=N/Nc1nc2ccccc2nc1-c1ccccc1 (centres undefined) | 32.2 µM | > 100 µM | 51.6 µM | > 100 µM | 83.6 µM | > 100 µM | 64.1 µM | > 100 µM | 70.3 µM | 82.4 µM | > 100 µM | 85.3 µM | > 100 µM | 74.1 µM | > 100 µM | 41.5 µM | > 100 µM | > 100 µM | > 100 µM | > 100 µM |
| C=C1C(=O)OC2CC(C)C3C=CC(=O)C3CC12 (centres undefined) |  | 5.14 µM |  | 3.34 µM |  | 6.53 µM |  | 3.74 µM |  |  | 7.17 µM |  | 7.03 µM |  | 7.4 µM |  | 5.77 µM |  | 8.07 µM | 9.5 µM |
| N#C/C(=C\c1ccc(Br)cc1)n1nnc2ccccc21 | 0.357 µM | 16.6 µM | 0.591 µM | 3.22 µM | 2.63 µM | 14 µM | 1.33 µM | 6.17 µM | 1.68 µM | 0.47 µM | 2.3 µM | 0.475 µM | 3.31 µM | 2.62 µM | 9.24 µM | 0.376 µM | 4.74 µM | 2.69 µM | 6.8 µM | 3.82 µM |
| C/C(=N\N=C(N)N)C(CN(C)C)C(c1ccccc1)c1c(O)c2ccccc2oc1=O (centres undefined) |  | > 100 µM |  | > 100 µM |  | > 100 µM |  | > 100 µM |  |  | > 100 µM |  | > 100 µM |  | > 100 µM |  | > 100 µM |  | > 100 µM | > 100 µM |
| C[C@H](N)C(=O)N1C[C@H](CCCB(O)O)[C@](N)(C(=O)O)C1 | > 100 µM | > 100 µM | > 100 µM | > 100 µM | > 100 µM | > 100 µM | > 100 µM | > 100 µM | > 100 µM | > 100 µM | > 100 µM | > 100 µM | > 100 µM | > 100 µM | > 100 µM | > 100 µM | > 100 µM | > 100 µM | > 100 µM | > 100 µM |
| O=C1CS/C(=N\S(=O)(=O)c2ccc(N3N=C4c5ccccc5CC4C3c3ccc(Cl)cc3)cc2)N1c1ccccc1 (centres undefined) | 13.7 µM | 58.3 µM | 1.73 µM | 16 µM | 29.4 µM | 87.4 µM | 86 µM | > 100 µM | 19.7 µM | 22.6 µM | 58.6 µM | 26.4 µM | 88.7 µM | 22.7 µM | 84.8 µM | 41.7 µM | > 100 µM | 29.7 µM | > 100 µM | 48.9 µM |
| CS(=O)(=O)OCCN(CCOS(C)(=O)=O)c1ccc(C=O)cc1 |  | 46.2 µM |  | 9.58 µM |  | 58 µM |  | 67.6 µM |  |  | 86 µM |  | 75.4 µM |  | 43.5 µM |  | > 71.6 µM |  | 17 µM | 3.36 µM |
| COc1ccc2c(c1)C1(C(=O)N2)C(C#N)=C(c2ccccc2)Nc2c1c(-c1ccccc1)nn2-c1ccccc1 (centres undefined) | 2.9 µM | 10.4 µM | 2.42 µM | 5.83 µM | 4.1 µM | 19.3 µM | 2.33 µM | 5.81 µM | 1.98 µM | 1.98 µM | 3.67 µM | 4.07 µM | 17.8 µM | 4.9 µM | 17.9 µM | 2.94 µM | 12.5 µM | 2.41 µM | 7.49 µM | 3.75 µM |
| CN1CCN(c2ccc(C(=O)Nc3cc(-c4cccc(NS(=O)(=O)c5ccccc5)c4)[nH]n3)cc2)CC1 | 3.28 µM | 42.3 µM | 4.28 µM | 14.1 µM | 1.7 µM | 10.4 µM | 3.53 µM | 12.2 µM | 5.46 µM | 10.2 µM | 33.2 µM | 3.33 µM | 14.5 µM | 5.51 µM | 25.7 µM | 3.8 µM | 18.6 µM | 12.4 µM | 26.7 µM | 23.1 µM |
| Fc1ccc2[nH]cc(SSc3c[nH]c4ccc(F)cc34)c2c1 | 2.54 µM | 8.56 µM | 3.83 µM | 17.4 µM | 4.22 µM | 31.1 µM | 4.17 µM | 26.8 µM | 4.44 µM | 0.861 µM | 12 µM | 1.5 µM | 6.46 µM | 5.07 µM | 21.9 µM | 2.54 µM | 20.5 µM | 10.1 µM | 24.6 µM | 19.9 µM |
| COc1ccc2c(c1)/C(=C/c1cc(OC)c(OC)c(OC)c1)C(=O)N2C | 2.21 µM | 7.04 µM | 1.83 µM | 3.68 µM | 1.43 µM | 4.61 µM | 2.81 µM | > 27.1 µM | 2.46 µM | 2.92 µM | > 100 µM | 1.59 µM | 4.43 µM | 2.39 µM | 6.72 µM | 2.59 µM | 6.45 µM | 3.56 µM | > 31.6 µM | 7.02 µM |
| Cc1c(N=Cc2ccc(N(CCC#N)CCC#N)cc2)c(=O)n(-c2ccccc2)n1C |  | > 100 µM |  | > 100 µM |  | > 100 µM |  | > 100 µM |  |  | > 100 µM |  | > 100 µM |  | > 100 µM |  | > 100 µM |  | 62.1 µM | > 100 µM |
| CC(C)c1ccc(NC(=S)NC(=O)c2ccccc2)cc1 |  | 49.6 µM |  | 33.6 µM |  | > 100 µM |  | 57 µM |  |  | > 100 µM |  | > 100 µM |  | 46.4 µM |  | 77.2 µM |  | 50.1 µM | 40.2 µM |
| Cc1cc(=O)oc2cc(OS(C)(=O)=O)ccc12 |  | > 100 µM |  | > 100 µM |  | > 100 µM |  | > 100 µM |  |  | > 100 µM |  | > 100 µM |  | > 100 µM |  | > 100 µM |  | > 100 µM | > 100 µM |
